US20210300940A1 (Merck Patent GmbH, priority 2018, published 2021)
Structures can show the parent of a compound that is named as a salt.

Tests used:
TLR7 = target: T1, TLR7 (Homo sapiens, UniProt Q9NYK1); assay: HEK/293 TLR7 Cell Assay; type: cell-based; details: TLR7/NFKb HEK cells, R848 agonist 10 uM final concentration, Steady-Glo readout; read-out: TLR7 potency
T1 construct: expressed in transfected cells; host or cells: HEK/293 cells carrying TLR7 and an NF-kB luciferase reporter
T1 sequence (Q9NYK1 27-1049): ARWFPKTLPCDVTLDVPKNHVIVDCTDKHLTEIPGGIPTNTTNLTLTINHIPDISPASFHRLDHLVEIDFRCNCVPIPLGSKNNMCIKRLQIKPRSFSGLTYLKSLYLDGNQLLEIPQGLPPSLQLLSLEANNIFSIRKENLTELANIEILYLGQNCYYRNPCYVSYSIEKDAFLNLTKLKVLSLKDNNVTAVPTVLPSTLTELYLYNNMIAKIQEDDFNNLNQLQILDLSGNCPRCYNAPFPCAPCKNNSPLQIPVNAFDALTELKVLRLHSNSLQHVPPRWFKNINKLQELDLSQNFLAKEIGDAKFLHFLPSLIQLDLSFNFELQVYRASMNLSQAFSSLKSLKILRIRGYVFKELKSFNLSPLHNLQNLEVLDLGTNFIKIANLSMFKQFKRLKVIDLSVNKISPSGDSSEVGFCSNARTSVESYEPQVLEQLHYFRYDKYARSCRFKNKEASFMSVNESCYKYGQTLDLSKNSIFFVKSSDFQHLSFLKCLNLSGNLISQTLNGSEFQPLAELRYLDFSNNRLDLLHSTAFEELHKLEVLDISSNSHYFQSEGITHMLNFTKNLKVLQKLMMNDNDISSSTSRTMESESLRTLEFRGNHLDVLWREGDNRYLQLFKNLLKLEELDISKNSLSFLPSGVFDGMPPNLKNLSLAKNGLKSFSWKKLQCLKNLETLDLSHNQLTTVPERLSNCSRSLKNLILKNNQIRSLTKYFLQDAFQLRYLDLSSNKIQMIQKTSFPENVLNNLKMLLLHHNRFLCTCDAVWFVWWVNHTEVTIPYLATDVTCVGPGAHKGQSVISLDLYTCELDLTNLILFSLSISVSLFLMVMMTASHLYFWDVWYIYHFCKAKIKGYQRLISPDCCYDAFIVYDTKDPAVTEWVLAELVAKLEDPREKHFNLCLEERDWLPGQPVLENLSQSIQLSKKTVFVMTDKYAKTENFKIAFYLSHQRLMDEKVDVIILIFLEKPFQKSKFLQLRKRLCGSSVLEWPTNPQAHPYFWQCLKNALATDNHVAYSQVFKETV
How it was run: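 Compounds added to HEK cells expressing TLR7 with an NFκB reporter 30 min ahead of 10 uM R848 challenge; luciferase signal (Steady-Glo) measured after 5 h, cells having been seeded 24 h earlier at 5000 per well.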

TLR8 = target: T2, TLR8 (Homo sapiens, UniProt Q9NR97); assay: HEK/293 TLR8 Cell Assay; type: cell-based; details: HEK cells, R848 agonist 30 uM final concentration, Steady-Glo readout; read-out: TLR8 potency
T2 construct: expressed in transfected cells; host or cells: HEK/293 reporter cells (NF-kB luciferase)
T2 sequence (Q9NR97 27-1041): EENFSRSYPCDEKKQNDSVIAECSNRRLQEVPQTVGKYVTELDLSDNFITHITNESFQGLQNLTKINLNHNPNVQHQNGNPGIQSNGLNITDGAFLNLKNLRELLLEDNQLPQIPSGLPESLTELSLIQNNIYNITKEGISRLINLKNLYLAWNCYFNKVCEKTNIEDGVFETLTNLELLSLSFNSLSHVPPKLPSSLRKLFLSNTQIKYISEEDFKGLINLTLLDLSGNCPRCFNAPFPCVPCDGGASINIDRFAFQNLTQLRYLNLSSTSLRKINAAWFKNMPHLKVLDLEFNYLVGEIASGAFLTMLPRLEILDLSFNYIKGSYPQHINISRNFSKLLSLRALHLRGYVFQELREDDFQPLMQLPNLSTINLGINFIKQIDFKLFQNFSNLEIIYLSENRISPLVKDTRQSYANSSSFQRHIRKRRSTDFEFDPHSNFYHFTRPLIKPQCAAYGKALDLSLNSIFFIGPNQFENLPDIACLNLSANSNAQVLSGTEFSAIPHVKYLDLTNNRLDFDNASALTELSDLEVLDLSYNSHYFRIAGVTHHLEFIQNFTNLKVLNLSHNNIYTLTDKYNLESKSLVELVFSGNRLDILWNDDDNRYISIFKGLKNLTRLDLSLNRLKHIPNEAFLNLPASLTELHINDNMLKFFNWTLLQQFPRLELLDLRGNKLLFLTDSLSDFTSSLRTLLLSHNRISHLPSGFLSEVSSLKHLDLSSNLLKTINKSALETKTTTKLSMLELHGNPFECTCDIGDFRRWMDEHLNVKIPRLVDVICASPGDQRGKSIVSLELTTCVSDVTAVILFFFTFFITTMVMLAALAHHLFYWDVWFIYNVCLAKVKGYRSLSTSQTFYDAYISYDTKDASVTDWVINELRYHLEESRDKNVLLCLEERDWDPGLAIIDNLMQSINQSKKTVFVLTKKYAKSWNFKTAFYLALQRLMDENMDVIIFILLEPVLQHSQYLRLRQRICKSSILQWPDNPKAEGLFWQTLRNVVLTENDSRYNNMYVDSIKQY

SMILES	IC50 (TLR7) [nM]	IC50 (TLR8) [nM]
C[C@@H]1CN(c2cnc(C#N)c3ncccc23)C[C@H](CNC(=O)[C@]2(F)CCCNC2)O1 (single isomer, unassigned) [Example 339]	> 150	< 75
C[C@@H]1CN(c2ccc(C#N)c3nccnc23)C[C@H](CNC(=O)[C@@H](C)O)O1 (single isomer, unassigned) [Example 340]	> 150	< 75
C[C@@H]1CN(c2ccc(C#N)c3nccnc23)C[C@H](CNC(=O)[C@H](C)O)O1 (single isomer, unassigned) [Example 341]	> 150	< 75
C[C@@H]1CN(c2ccc(C#N)c3ncncc23)C[C@H](CNC(=O)[C@@]2(F)CCNC2)O1 (single isomer, unassigned) [Example 344]	< 75	< 75
C[C@@H]1CN(c2ccc(C#N)c3ncncc23)C[C@H](CNC(=O)[C@]2(F)CCNC2)O1 (single isomer, unassigned) [Example 345]	< 75	< 75
CN1CC[C@@](F)(CNC(=O)[C@H]2CN(c3cnc(C#N)c4ncccc34)C[C@@H](C(F)(F)F)O2)C1 (single isomer, unassigned) [Example 350]	> 150	> 150
N#Cc1ccc(N2C[C@H](CN3CC(O)C3)O[C@H](C(F)(F)F)C2)c2nccnc12 (single isomer, unassigned) [Example 361]	< 75	75 to 150
N#Cc1ccc(N2C[C@@H](CN3CC(O)C3)O[C@@H](C(F)(F)F)C2)c2nccnc12 (single isomer, unassigned) [Example 362]	< 75	> 150
C[C@@H]1CN(c2cnc(C(F)(F)F)c3ncccc23)C[C@H](CNC[C@H]2CN(C)CCO2)O1 (single isomer, unassigned) [Example 385]	> 150	< 75
C[C@@H]1CN(c2cnc(C(F)(F)F)c3ncccc23)C[C@H](CNC[C@@H]2CN(C)CCO2)O1 (single isomer, unassigned) [Example 386]	> 150	< 75
CCN(CC)CCO[C@@H]1C[C@H](C)CN(c2ccc(C#N)c3nccnc23)C1 [Example 6, 8-[(3R,5S)-3-[2-(diethylamino)ethoxy]-5-methylpiperidin-1-yl]quinoxaline-5-carbonitrile]	< 75	< 75
CCOc1ncc(N2C[C@H](N)C[C@H](C(F)(F)F)C2)c2cccnc12 [Example 10, (3R,5S)-1-(8-Ethoxy-[1,7]naphthyridin-5-yl)-5-trifluoromethyl-piperidin-3-ylamine]	> 150	> 150
C[C@H]1C[C@@H](NCC2(O)CCOCC2)CN(c2cnc(C(F)(F)F)c3ncccc23)C1 [Example 11, 4-{[(3R,5S)-5-Methyl-1-(8-trifluoromethyl-[1,7]naphthyridin-5-yl)-piperidin-3-ylamino]-methyl}-tetrahydro-pyran-4-ol]	> 150	> 150

Now from value to compound:

IC50 (TLR7) [nM]	IC50 (TLR8) [nM]	SMILES
75 to 150	75 to 150	CN1CC[C@@](F)(CNC(=O)[C@@H]2CN(c3cnc(C#N)c4ncccc34)C[C@H](C(F)(F)F)O2)C1 (single isomer, unassigned) [Example 349]
< 75	< 75	CN1CCC(F)(CNC(=O)[C@@H]2CN(c3cnc(C#N)c4ncccc34)C[C@H](C(F)(F)F)O2)CC1 (single isomer, unassigned) [Example 351]
< 75	< 75	CN1CCC(F)(CNC(=O)[C@H]2CN(c3ccc(C#N)c4ncccc34)C[C@@H](C(F)(F)F)O2)CC1 (single isomer, unassigned) [Example 353]
75 to 150	> 150	CN1CCC(F)(CNC(=O)[C@@H]2CN(c3ccc(C#N)c4ncccc34)C[C@H](C(F)(F)F)O2)CC1 (single isomer, unassigned) [Example 354]
< 75	< 75	CN1CC[C@@](F)(CNC(=O)[C@H]2CN(c3ccc(C#N)c4nccnc34)C[C@@H](C(F)(F)F)O2)C1 (single isomer, unassigned) [Example 355]
< 75	< 75	CN1CC[C@@](F)(CNC(=O)[C@@H]2CN(c3ccc(C#N)c4nccnc34)C[C@H](C(F)(F)F)O2)C1 (single isomer, unassigned) [Example 356]
< 75	< 75	CN1CC[C@](F)(CNC(=O)[C@H]2CN(c3ccc(C#N)c4nccnc34)C[C@@H](C(F)(F)F)O2)C1 (single isomer, unassigned) [Example 357]
< 75	< 75	CN1CC[C@](F)(CNC(=O)[C@@H]2CN(c3ccc(C#N)c4nccnc34)C[C@H](C(F)(F)F)O2)C1 (single isomer, unassigned) [Example 358]
< 75	< 75	CN1CCC(F)(CNC(=O)[C@H]2CN(c3ccc(C#N)c4nccnc34)C[C@@H](C(F)(F)F)O2)CC1 (single isomer, unassigned) [Example 359]
< 75	< 75	CN1CCC(F)(CNC(=O)[C@@H]2CN(c3ccc(C#N)c4nccnc34)C[C@H](C(F)(F)F)O2)CC1 (single isomer, unassigned) [Example 360]
< 75	> 150	N#Cc1ccc(N2C[C@H](CN3CCC4(CC3)CC(=O)N4)O[C@H](C(F)(F)F)C2)c2nccnc12 (single isomer, unassigned) [Example 363]
< 75	> 150	N#Cc1ccc(N2C[C@@H](CN3CCC4(CC3)CC(=O)N4)O[C@@H](C(F)(F)F)C2)c2nccnc12 (single isomer, unassigned) [Example 364]
< 75	< 75	C[C@H]1C[C@@H](OCCN2CCCCC2)CN(c2ccc(C#N)c3nccnc23)C1 [Example 5, 8-[(3S,5R)-3-methyl-5-[2-(piperidin-1-yl)ethoxy]piperidin-1-yl]quinoxaline-5-carbonitrile]
< 75	< 75	C[C@H]1C[C@@H](N)CN(c2cnc(C(F)(F)F)c3ncccc23)C1 [Example 7, (3R,5S)-5-Methyl-1-(8-trifluoromethyl-[1,7]naphthyridin-5-yl)-piperidin-3-ylamine hydrochloride]
< 75	< 75	C[C@H]1C[C@@H](N)CN(c2cnc(C#N)c3ncccc23)C1 [Example 8, 5-((3R,5S)-3-Amino-5-methyl-piperidin-1-yl)-[1,7]naphthyridine-8-carbonitrile hydrochloride]
< 75	75 to 150	N#Cc1ncc(N2C[C@H](N)C[C@H](C(F)(F)F)C2)c2cccnc12 [Example 9, 5-((3R,5S)-3-Amino-5-trifluoromethyl-piperidin-1-yl)-[1,7]naphthyridine-8-carbonitrile]
